Entries after “also recorded” stand apart in the source; their conditions may differ. Where a name gives a salt, the structure may show the parent alone.
These compounds were tested on primary mouse hippocampal neurons treated with murine-PFF (assay: Primary neuron model of αSN PFF pathology). Conditions: 1 µM compound, co-treatment with murine-PFF for 12 days.
Assay type: cell-based
Excerpt: As described previously, numerous in vivo and in vitro alpha-synucleinopathy mouse models have been developed using treatment with sonicated αSN PFF to model pathology. PFF treatment of primary mouse hippocampal neurons results in neurotoxicity and increased phosphoserine-129 (pS^129) immunoreactivity, a marker for alpha-synucleinopathy pathology[87],[88]. These effects can be produced using either human-PFF or murine-PFF with the murine-PFF providing a stronger response. Primary neurons (7 days in vitro (DIV)) were treated for 12 days with murine-PFF or PBS and 1 µM hit compound or DMSO (compound vehicle). Neurons were fixed and stained for NeuN (neuronal nuclei), Map2 (neurite and neuronal morphology), and 81a (pS^129) (see Supplementary Fig. 16). […] Future studies focused on hit-to-lead optimization will focus on these nuances to resolve hit compound’s MOA.
Primary neuronal cultures were prepared from CD1 embryos on E16–18, as previously described. Primary mouse neuron protocol was approved by the University of Pennsylvania Institutional Animal Care and Use Committee. Tissue culture plates and coverslips were coated with Poly-D-lysine (Sigma) before addition of cells. Neurons were plated in 96-well plates (60,000 cells/cm^2). Cultures were maintained in Neurobasal medium supplemented with B27 and Glutamax (all from Invitrogen).
PFF treatment was performed at 7 DIV and cultures were incubated for a further 12 days prior to fixation and analysis. […] PFF concentrations are expressed as the total equivalent αSN monomer content in the preparation. […]
Cultured neurons were fixed by replacing media with warm PFA (4% in PBS containing 4% sucrose) for 15 min at RT. […] Image analysis and quantification was performed using the InCell Toolbox Analyzer software (GE Healthcare Life Sciences). The total integrated area for 81a immunopositivity was quantified for each sample and then normalized (divided) by the number of NeuN-positive objects in the fields examined.
With `COC(=O)C1=C(C)NC(C)=C([N+](=O)[O-])C1c1ccccc1C(F)(F)F` (racemic) [BAY, (±)-Bay K 8644] the “pS129 pathology staining (81a/NeuN)” value was “reduced the αSN pathology; also recorded: reduces the pS^129 phenotype”.
For `Nc1ccc(-c2nc3ccc(-c4nc5ccc(N)cc5[nH]4)cc3[nH]2)cc1` [RO, Ro 90–7501], the “pS129 pathology staining (81a/NeuN)” value was “little to no effect”.
In the case of `CN(C)[C@@H]1C(O)=C(C(N)=O)C(=O)[C@@]2(O)C(O)=C3C(=O)c4c(O)ccc(Cl)c4[C@@H](O)[C@H]3C[C@@H]12` [DEM, Demeclocycline HCl], the “pS129 pathology staining (81a/NeuN)” value is reported as “reduced the αSN pathology; also recorded: reduces the pS^129 phenotype”.

Each compound was assayed against T1, αSN oligomers (Homo sapiens, UniProt P37840) (assay: ThT content (β-sheet) of αSN oligomers after oligomerization assay). Conditions: 70 μM compound (1:5 compound:monomer), 12 h oligomerization; vs DMSO.
T1 construct: made in house; host or cells: Escherichia coli BL21(DE3), T7-7 plasmid
Assay type: biochemical
Experimental: To explore the presence of β-sheet content in these oligomers, an aliquot was removed prior to cross-linking, diluted into 100 μM ThT working solution, and ThT fluorescence was monitored to detect the presence of β-sheet. Supplementary Fig. 22 presents each sample ThT content normalized to the PFF signal. We observed an increased ThT content in the αSN oligomers (αS-O) that was not affected by DMSO (vehicle) treatment.
A 10-μL aliquot from each sample was taken and diluted with 290 μL ThT working solution (100 μM ThT in PBS) and dispensed into 3 wells of a 384-well, black opaque plate. Additional samples of PBS, αSN(m), and αSN PFF were used as controls. Plates were incubated at ambient temperature for 10 min and then fluorescence read at 450ex/490em on a Spectromax-i3x (Molecular Devices).
Supplemental Figure 22. Characterization of β-sheet content in αSN oligomers due to hit compound
After the 12-hour oligomerization assay aliquots of each sample were
removed and diluted in 100μM ThT and fluorescence read in triplicate (450ex/490em) in 384-well plates. The
ThT signal was normalized to a signal from previously frozen αSN PFF aliquots. After completion of the
PFF, green bar) and the ThT signal was not affected by DMSO (red bar). Oligomerization in the presence of
control compounds, EGCG and Baicalin, at 70μM (a sub-stoichiometric,1:5 compound: monomer ratio)
Our hit compounds RO, DEM, and BAY had differential effects with
both DEM and BAY resulting in increased ThT content and RO not producing a significant change relative to
(1 picture or pasted object on this page, not shown here)
For `COC(=O)C1=C(C)NC(C)=C([N+](=O)[O-])C1c1ccccc1C(F)(F)F` (racemic) [BAY, (±)-Bay K 8644], the “ThT signal of αSN oligomers” value was “increased the ThT signal”.
For `Nc1ccc(-c2nc3ccc(-c4nc5ccc(N)cc5[nH]4)cc3[nH]2)cc1` [RO, Ro 90–7501], the “ThT signal of αSN oligomers” value was “no effect”.
With `CN(C)[C@@H]1C(O)=C(C(N)=O)C(=O)[C@@]2(O)C(O)=C3C(=O)c4c(O)ccc(Cl)c4[C@@H](O)[C@H]3C[C@@H]12` [DEM, Demeclocycline HCl] the “ThT signal of αSN oligomers” value was “increased the ThT signal”.

From paper PMC8238948, “Potent inhibitors of toxic alpha-synuclein identified via cellular time-resolved FRET biosensors” (NPJ Parkinson's Disease, 2021)
